# Reference: patent US9187518B2, “Antiangiogenic brassinosteroid compounds” (CONSEJO NACIONAL DE INVESTIGACIONES CIENTIFICAS Y TECNICAS …, priority 2011, dated 2015)
# How the values were obtained:
# NF-κB p65 subunit [1] = assay: NF-κB p65 nuclear translocation in HSV-1 infected IOBA-NHC and HCLE cells (IFI); format: cell-based, human; settings: 40 μM
# Description: IOBA-NHC and HCLE cells monolayers grown on coverslips in 24-well plates were infected with 0.2 ml of HSV-1 KOS (m.o.i.=1) and incubated 1 h at 37° C. Then, the inoculums were removed and cells were coated with a DMEM/F12 without SFB, for 24 h at 37° C.
# After incubation, cells were fixed in methanol at −20° C. for 10 min, and processed for indirect immunofluorescence (IFI) with antibodies directed against the glycoprotein D (gD) of HSV-1 and/or the p65 subunit of NF-κB. […]
# (§1) The images obtained with a 40× magnification were imported into NIH Image J 1.34s program (designed by Wayne Rasband, NIMH, Bethesda). […] We analyzed the total and nuclear fluorescence of the individual cells and a mean fluorescence density was obtained for each. To compare the distribution of fluorescence within the cell, the results were analyzed in a spreadsheet (Excel®). The total fluorescence intensity or nuclear density was calculated as the total or nuclear average per total or nuclear area, respectively. Then, we calculated the percentage of nuclear intensity or the percentage of nuclear intensity with respect to the total intensity for each cell. Non-stimulated cells were processed to establish a baseline of nuclear fluorescence (cut-off value). […]
# TNF-α = TNF-α secretion in LPS-activated macrophages; format: cell-based; settings: Macrophage, read-out: inhibitory concentration 50% (IC50), TNF-α secretion
# NF-κB p65 subunit [2] = assay: NF-κB p65 nuclear translocation in LPS-stimulated J774A.1 cells (IFI); format: cell-based, murine; settings: J774A.1 induced with LPS 8 h, 40 μM (LPS only 79.4±1.2)
# Description: J774A.1 cells were grown on coverslips in 24-well plates and stimulated with 100 ng/ml LPS (Sigma) in RPMI without SFB, for 8 h at 37° C.
# After incubation, cells were fixed in methanol at −20° C. for 10 min, and processed for indirect immunofluorescence (IFI) with antibodies directed against the glycoprotein D (gD) of HSV-1 and/or the p65 subunit of NF-κB. After three washes with PBS, the coverslips were inverted on a drop of a 1/100 dilution of the first antibody, mouse monoclonal anti-gD and/or rabbit polyclonal anti p65 (Santa Cruz Biotechnology) and incubated for 30 min at 37° C., and then subjected to three additional washes with PBS. […]
# as §1, with “cell.” for “cell. Non-stimulated cells were processed to establish a baseline of nuclear fluorescence (cut-off value).”
# HUVEC cells = assay: Capillary tube formation on a Matrigel; format: cell-based, human; settings: for reduction of tube formation vs untreated control: not statistically significant
# Description: The formation of capillary tube like structures by HUVEC cells was analyzed on 24-well cell culture plates coated with an extracellular membrane matrix (Matrigel; BD Biosciences).
# Matrigel was thawed at 4° C. Using precooled plates and tips, 100 μl/well of Matrigel was distributed and allowed to gelify at 37° C. for at least 30 min. Cells were seeded on the polymerized Matrigel (5 to 8×10^4 cells/well). The plate was incubated at 37° C., and tube formation was observed under a optic inverted microscope. Digital pictures were taken at different times with a camera. Tubular structures were quantified by manual counting of low power fields (25×) and inhibition percentage was expressed using untreated wells as 100%.
# The formation of capillary tube-like structures by HUVEC cells was analyzed on 24-well cell culture plates coated with an extracellular membrane matrix (Matrigel; BD Biosciences). Matrigel was thawed at 4° C. Using precooled plates and tips, 100 μl/well of Matrigel was distributed and allowed to gelify at 37° C. for at least 30 min. Cells were seeded on the polymerized Matrigel (5 to 8×10^4 cells/well) in absence and presence of concentrations of 20 μM and 40 μM of each compound. The plate was incubated at 37° C., and tube formation was observed under an optic inverted microscope. Compound 1 was used as positive control.
# HUVECs = assay: Cell invasion assay (transwell, IL-6 stimulated); format: cell-based; settings: Homo sapiens, HUVEC, 100 ng/ml IL-6, 24 h, read-out: inhibition of HUVECs invasion through the filter
# Description: HUVECs' invasion was evaluated using 24-well transwell cell culture chambers with 8 μm pore polycarbonate filter inserts. Cultured HUVECs were trypsinized and suspended in Medium 200 supplemented with LSGS at a concentration of 8×10^5 cells/ml. A total of 4×10^4 of cell suspension was applied to insert filters. We used 100 ng/ml of IL-6 to stimulate cell migration through the inserts. For that, we dispensed 600 μl of medium alone or with the stimulus in the lower chamber, which was then incubated for 24 h at 37° C. to allow cell migration. The insert was removed and migrated cells on the wells were fixed and stained with crystal violet. The wells were examined under a microscope. Migration was quantified by measuring the total stained cells in every well.
structure (smiles),measurement,setting,value
"CC[C@@H](C(C)C)[C@H](O)[C@@H](O)[C@@H](C)[C@H]1CC[C@H]2[C@@H]3CCC4=CC(=O)CC[C@]4(C)[C@H]3CC[C@]12C [Compound 1, (22S,23S)-22,23-dihydroxystigmast-4-en-3-one]",percentage of cells exhibiting NF-κB translocation to the nucleus,NF-κB p65 subunit [1]; HCLE cells infected with HSV-1 (m.o.i.=1),5.7%
same,percentage of cells exhibiting NF-κB translocation to the nucleus,NF-κB p65 subunit [1]; IOBA-NHC cells infected with HSV-1 (m.o.i.=1),22.2±1.2%
same,IC50,TNF-α,7 µM
same,percentage of cells positive for NF-κB translocation to the nucleus,NF-κB p65 subunit [2],87.9±0.2%
same,reduction of tube formation vs untreated control,"HUVEC cells; 2.5 μM, 24 h",17.3%
same,reduction of tube formation vs untreated control,"HUVEC cells; 5 μM, 24 h",25.9%
same,reduction of the tube-like network,"HUVEC cells; 10 μM, 24 h",59.8%
same,formation of capillary tube like structures,"HUVEC cells; 20 μM and 40 μM, comparative assay",showed inhibitory activity
same,reduction of the tube-like network,"HUVEC cells; 20 μM, 24 h",90.7%
same,inhibition of tube formation,"HUVEC cells; 50 μM, 24 h",complete inhibition
same,inhibition of tube formation,"HUVEC cells; 100 μM, 24 h",complete inhibition
same,inhibition at 40 µM,"HUVEC cells; Homo sapiens, HUVEC, 40 μM, 24 h",93.9%
same,inhibition at 10 µM,HUVECs; 10 μM,18.4%
same,inhibition at 20 µM,HUVECs; 20 μM,26.1%
same,inhibition at 40 µM,HUVECs; 40 μM,67.5%
